Reference: US20260191968A1, “PROTAC DEGRADERS OF MLLT1 AND/OR MLLT3” (DARK BLUE THERAPEUTICS LTD, priority 2024, published 2026)

How the values were obtained:
MV4-11 cells = test: MV4-11 cellular proliferative assay, Assay Format B (CTG 2.0, 168 h); format: cell-based; conditions: Homo sapiens, 168 h (7 days), CTG 2.0, read-out: IC50 (MV4-11 cellular proliferative assay, Assay format B)
Method in brief: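 MV4-11 cells seeded overnight in IMDM + 10% FBS, then exposed to 10-point, 3-fold dilutions from 1 uM or 100 nM top concentration (0.3% DMSO final) for 168 h at 37 °C. CTG 2.0 luminescence read; % viability vs DMSO control fitted by four-parameter logistic regression.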

MLLT1 = molecular target: T1, MLLT1 (Homo sapiens, UniProt Q03111); test: MLLT1 degradation assay in MV4-11 cells (JESS chemiluminescent detection), three concentrations, 24 h; format: cell-based; conditions: with respect to DMSO control
T1 construct: host or cells: MV4-11
T1 sequence (Q03111 1-559): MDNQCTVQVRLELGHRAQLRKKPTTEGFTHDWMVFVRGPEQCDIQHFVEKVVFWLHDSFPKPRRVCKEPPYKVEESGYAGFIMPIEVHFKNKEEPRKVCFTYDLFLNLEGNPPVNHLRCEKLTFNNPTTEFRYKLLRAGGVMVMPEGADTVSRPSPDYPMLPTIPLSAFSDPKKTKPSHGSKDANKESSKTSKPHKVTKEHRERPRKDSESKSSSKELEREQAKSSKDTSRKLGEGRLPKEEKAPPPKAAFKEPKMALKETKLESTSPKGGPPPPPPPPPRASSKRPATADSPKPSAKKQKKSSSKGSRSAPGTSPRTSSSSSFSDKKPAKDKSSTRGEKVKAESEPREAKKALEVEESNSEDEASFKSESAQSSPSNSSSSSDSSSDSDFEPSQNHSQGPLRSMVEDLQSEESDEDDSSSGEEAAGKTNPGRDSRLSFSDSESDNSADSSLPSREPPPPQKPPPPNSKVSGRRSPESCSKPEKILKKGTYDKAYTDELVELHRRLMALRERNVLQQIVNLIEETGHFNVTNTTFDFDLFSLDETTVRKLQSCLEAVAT
Method in brief: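 MV4-11 cells treated 24 h at 37° C, 5% CO2 with 1000, 100 and 10 nM compound (0.1% DMSO final). MLLT1 quantified by automated capillary chemiluminescent immunodetection; band peak area expressed as % degradation relative to DMSO control.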

Structure (SMILES)	IC50 (MV4-11 cells) [nM]	MLLT1% Degradation @ 0.01 μM (MLLT1)	MLLT1% Degradation @ 0.1 μM (MLLT1)	MLLT1% Degradation @ 1 μM (MLLT1)
CN1CCC[C@@H]1c1cc2cnc(NC(=O)c3ccc(OC4CCN(CC5CCN(c6ccc7c(c6)C(=O)N(C6CCC(=O)NC6=O)C7=O)CC5)CC4)cc3)cc2[nH]1 (stereo partly drawn) [Example 124, 4-((1-((1-(2-(2,6-dioxopiperidin-3-yl)-1,3-dioxoisoindolin-5-yl)piperidin-4-yl)methyl)piperidin-4-yl)oxy)-N-(2-((R)-1-methylpyrrolidin-2-yl)-1H-pyrrolo[3,2-c]pyridin-6-yl)benzamide]	≤ 100	B (Category B: 50% ≤ B < 75% degradation)	A (Category A: A ≥ 75% degradation)	A (Category A: A ≥ 75% degradation)
CN1CCC[C@@H]1c1cc2cnc(NC(=O)c3ccc(OC4CCN(CC5CCN(c6cccc7c6CN(C6CCC(=O)NC6=O)C7=O)CC5)CC4)nc3)cc2[nH]1 (stereo partly drawn) [Example 125, 6-((1-((1-(2-(2,6-dioxopiperidin-3-yl)-1-oxoisoindolin-4-yl)piperidin-4-yl)methyl)piperidin-4-yl)oxy)-N-(2-((R)-1-methylpyrrolidin-2-yl)-1H-pyrrolo[3,2-c]pyridin-6-yl)nicotinamide]	≤ 100	A (Category A: A ≥ 75% degradation)	A (Category A: A ≥ 75% degradation)	A (Category A: A ≥ 75% degradation)
CN1CCC[C@@H]1c1cc2cnc(NC(=O)c3ccc(N4CCN(Cc5ccc(-c6cccc7c6CN(C6CCC(=O)NC6=O)C7=O)cc5)CC4)nc3)cc2[nH]1 (stereo partly drawn) [Example 129, 6-(4-(4-(2-(2,6-dioxopiperidin-3-yl)-1-oxoisoindolin-4-yl)benzyl)piperazin-1-yl)-N-(2-((R)-1-methylpyrrolidin-2-yl)-1H-pyrrolo[3,2-c]pyridin-6-yl)nicotinamide]	≤ 100	B (Category B: 50% ≤ B < 75% degradation)	B (Category B: 50% ≤ B < 75% degradation)	C (Category C: 25% ≤ C < 50% degradation)
CN1CCC[C@@H]1c1cc2cnc(NC(=O)c3ccc(CCCN4CCN(c5cccc6c5CN(C5CCC(=O)NC5=O)C6=O)CC4)cc3)cc2[nH]1 (stereo partly drawn) [Example 131, 4-(3-(4-(2-(2,6-dioxopiperidin-3-yl)-1-oxoisoindolin-4-yl)piperazin-1-yl)propyl)-N-(2-((R)-1-methylpyrrolidin-2-yl)-1H-pyrrolo[3,2-c]pyridin-6-yl)benzamide]	≤ 100	B (Category B: 50% ≤ B < 75% degradation)	A (Category A: A ≥ 75% degradation)	A (Category A: A ≥ 75% degradation)
C[C@H]1CN(CC2CCN(c3cccc4c3CN(C3CCC(=O)NC3=O)C4=O)CC2)CCN1c1ccc(C(=O)Nc2cc3[nH]c([C@H]4CCCN4C)cc3cn2)cc1 (stereo partly drawn) [Example 132, 4-((2S)-4-((1-(2-(2,6-dioxopiperidin-3-yl)-1-oxoisoindolin-4-yl)piperidin-4-yl)methyl)-2-methylpiperazin-1-yl)-N-(2-((R)-1-methylpyrrolidin-2-yl)-1H-pyrrolo[3,2-c]pyridin-6-yl)benzamide]	≤ 100	B (Category B: 50% ≤ B < 75% degradation)	A (Category A: A ≥ 75% degradation)	B (Category B: 50% ≤ B < 75% degradation)
CN1CCC[C@@H]1c1cc2cnc(NC(=O)c3ccc(N4CCC(OC5CCN(c6cccc7c6CN(C6CCC(=O)NC6=O)C7=O)CC5)CC4)cc3)cc2[nH]1 (stereo partly drawn) [Example 137, 4-(4-((1-(2-(2,6-dioxopiperidin-3-yl)-1-oxoisoindolin-4-yl)piperidin-4-yl)oxy)piperidin-1-yl)-N-(2-((R)-1-methylpyrrolidin-2-yl)-1H-pyrrolo[3,2-c]pyridin-6-yl)benzamide]	≤ 100	A (Category A: A ≥ 75% degradation)	A (Category A: A ≥ 75% degradation)	A (Category A: A ≥ 75% degradation)
CN1CCC[C@@H]1c1cc2cnc(NC(=O)c3ccc(N4CCC(CCN5CCN(c6cccc7c6CN(C6CCC(=O)NC6=O)C7=O)CC5)CC4)nc3)cc2[nH]1 (stereo partly drawn) [Example 138, 6-(4-(2-(4-(2-(2,6-dioxopiperidin-3-yl)-1-oxoisoindolin-4-yl)piperazin-1-yl)ethyl)piperidin-1-yl)-N-(2-((R)-1-methylpyrrolidin-2-yl)-1H-pyrrolo[3,2-c]pyridin-6-yl)nicotinamide]	≤ 100	A (Category A: A ≥ 75% degradation)	A (Category A: A ≥ 75% degradation)	A (Category A: A ≥ 75% degradation)
CN1CCC[C@@H]1c1cc2cnc(NC(=O)c3ccc(N4CCC(COC5CCN(c6cccc7c6CN(C6CCC(=O)NC6=O)C7=O)CC5)CC4)nc3)cc2[nH]1 (stereo partly drawn) [Example 140, 6-(4-(((1-(2-(2,6-dioxopiperidin-3-yl)-1-oxoisoindolin-4-yl)piperidin-4-yl)oxy)methyl)piperidin-1-yl)-N-(2-((R)-1-methylpyrrolidin-2-yl)-1H-pyrrolo[3,2-c]pyridin-6-yl)nicotinamide]	≤ 100	B (Category B: 50% ≤ B < 75% degradation)	A (Category A: A ≥ 75% degradation)	A (Category A: A ≥ 75% degradation)
CN1CCC[C@@H]1c1cc2cnc(NC(=O)c3ccc(OCCN4CCC(c5cccc6c5CN(C5CCC(=O)NC5=O)C6=O)CC4)cc3)cc2[nH]1 (stereo partly drawn) [Example 141, 4-(2-(4-(2-(2,6-dioxopiperidin-3-yl)-1-oxoisoindolin-4-yl)piperidin-1-yl)ethoxy)-N-(2-((R)-1-methylpyrrolidin-2-yl)-1H-pyrrolo[3,2-c]pyridin-6-yl)benzamide]	≤ 100	A (Category A: A ≥ 75% degradation)	A (Category A: A ≥ 75% degradation)	A (Category A: A ≥ 75% degradation)
CN1CCC[C@@H]1c1cc2cnc(NC(=O)c3ccc(OCCN4CCN(c5cccc6c5CN(C5CCC(=O)NC5=O)C6=O)CC4)cc3)cc2[nH]1 (stereo partly drawn) [Example 142, 4-(2-(4-(2-(2,6-dioxopiperidin-3-yl)-1-oxoisoindolin-4-yl)piperazin-1-yl)ethoxy)-N-(2-((R)-1-methylpyrrolidin-2-yl)-1H-pyrrolo[3,2-c]pyridin-6-yl)benzamide]	≤ 100	A (Category A: A ≥ 75% degradation)	A (Category A: A ≥ 75% degradation)	A (Category A: A ≥ 75% degradation)
CN1CCC[C@@H]1c1cc2cnc(NC(=O)c3ccc(OC4CCN(CC5CCN(c6ccc7c(c6)CN(C6CCC(=O)NC6=O)C7=O)CC5)CC4)cc3)cc2[nH]1 (stereo partly drawn) [Example 143, 4-((1-((1-(2-(2,6-dioxopiperidin-3-yl)-1-oxoisoindolin-5-yl)piperidin-4-yl)methyl)piperidin-4-yl)oxy)-N-(2-((R)-1-methylpyrrolidin-2-yl)-1H-pyrrolo[3,2-c]pyridin-6-yl)benzamide]	≤ 100	A (Category A: A ≥ 75% degradation)	A (Category A: A ≥ 75% degradation)	A (Category A: A ≥ 75% degradation)
CN1CCC[C@@H]1c1cc2cnc(NC(=O)c3ccc(OC4CCN(CC5CCN(c6cccc7c6C(=O)N(C6CCC(=O)NC6=O)C7=O)CC5)CC4)cc3)cc2[nH]1 (stereo partly drawn) [Example 144, 4-((1-((1-(2-(2,6-dioxopiperidin-3-yl)-1,3-dioxoisoindolin-4-yl)piperidin-4-yl)methyl)piperidin-4-yl)oxy)-N-(2-((R)-1-methylpyrrolidin-2-yl)-1H-pyrrolo[3,2-c]pyridin-6-yl)benzamide]	≤ 100	B (Category B: 50% ≤ B < 75% degradation)	A (Category A: A ≥ 75% degradation)	A (Category A: A ≥ 75% degradation)
CN1CCC[C@@H]1c1cc2cnc(NC(=O)c3ccc(N4CCC(OC5CCN(c6cccc7c6CN(C6CCC(=O)NC6=O)C7=O)CC5)CC4)nc3)cc2[nH]1 (stereo partly drawn) [Example 145, 6-(4-((1-(2-(2,6-dioxopiperidin-3-yl)-1-oxoisoindolin-4-yl)piperidin-4-yl)oxy)piperidin-1-yl)-N-(2-((R)-1-methylpyrrolidin-2-yl)-1H-pyrrolo[3,2-c]pyridin-6-yl)nicotinamide]	≤ 100	A (Category A: A ≥ 75% degradation)	A (Category A: A ≥ 75% degradation)	A (Category A: A ≥ 75% degradation)
